Assay [1] can be described thus: Inhibition of bovine testis hyaluronidase using hyaluronic acid as substrate preincubated with CaCl2 for 20 mins followed by incubation with compound for 20 mins and substrate for 10 mins by colorimetric Morgan-Elson method. The arrangement: species or system Bos taurus.
The species entered for assay [2] is Bos taurus. Nature of the assay: Inhibition of bovine testis hyaluronidase using hyaluronic acid as substrate at 3000 uM preincubated with CaCl2 for 20 mins followed by incubation with compound for 20 mins and substrate for 10 mins by colorimetric Morgan-Elson method in presence of 0.05% triton X-100.
The nature of assay [3]: Inhibition of bovine testis hyaluronidase using hyaluronic acid as substrate preincubated for 20 mins followed by incubation with CaCl2 for 20 mins and substrate for 10 mins by colorimetric Morgan-Elson method. More on the design: species or system Bos taurus.
Assay [4] can be described thus: Inhibition of bovine testis hyaluronidase using hyaluronic acid as substrate preincubated with CaCl2 for 20 mins followed by incubation with compound for 20 mins and substrate for 10 mins by colorimetric Morgan-Elson method in presence of BSA. The arrangement: species or system Bos taurus.
Assay [5] can be described thus: Inhibition of bovine testis hyaluronidase using hyaluronic acid as substrate preincubated with CaCl2 for 20 mins followed by incubation with of compound for 20 mins and substrate for 10 mins by colorimetric Morgan-Elson method in presence of 0.05% triton X-100. The arrangement: species or system Bos taurus.
The species entered for assay [6] is Bos taurus. Nature of the assay: Inhibition of bovine testis hyaluronidase preincubated with CaCl2 for 20 mins followed by incubation with compound for 20 mins and substrate for 10 mins by colorimetric Morgan-Elson method in presence of up to 21% DMSO.
A short description of assay [7]: Inhibition of bovine testis hyaluronidase preincubated with CaCl2 for 20 mins followed by incubation with compound for 20 mins and substrate for 10 mins by colorimetric Morgan-Elson method in presence of urea. More on the design: species or system Bos taurus.
For assay [8], the species on record is Bos taurus. Description: Ratio of IC50 for inhibition of bovine testis hyaluronidase preincubated with CaCl2 for 20 mins followed by addition of compound to IC50 for inhibition of bovine testis hyaluronidase preincubated for 20 mins followed by addition of CaCl2.

Calls of active or inactive are those of the source. The rule behind the calls is not given here.

Consider five compounds from ChEMBL document CHEMBL3808309, “Interpreting the behavior of concentration-response curves of hyaluronidase inhibitors under DMSO-perturbed assay conditions” (Bioorg Med Chem Lett, 2016).

For `COc1ccc2c(c1)c(CC(=O)O)c(C)n2C(=O)c1ccc(Cl)cc1` [INDOMETHACIN], the IC50 in assay [1] stood at 1400 µM; in assay [3], 340 µM; in assay [4], 2000 µM. Besides, in assay [2], the inhibition is < 50%.

Turning to `CCCCCCCCCCCCCCCC(=O)OC[C@H](O)C1OC(=O)C(O)=C1O` (some centres not stated), the IC50 worked out at 47 µM in assay [1], 480 µM in assay [5], 23 µM in assay [3] and 240 µM in assay [4]. Also, in assay [6], the inhibition result is “Active”.

Take `CC1(C)[C@@H](O[C@H]2O[C@H](C(=O)O)[C@@H](O)[C@H](O)[C@H]2O[C@@H]2O[C@H](C(=O)O)[C@@H](O)[C@H](O)[C@H]2O)CC[C@]2(C)[C@H]3C(=O)C=C4[C@@H]5C[C@@](C)(C(=O)O)CC[C@]5(C)CC[C@@]4(C)[C@]3(C)CC[C@@H]12` [GLYCYRRHIZIN]: the IC50 was found to be 29 µM in assay [1]; 40 µM in assay [5]; 31 µM in assay [7]; 8.5 µM in assay [3]; 61 µM in assay [4]. The Ratio IC50 in assay [8] was > 3. For the same compound, in assay [6], the inhibition result was “inactive”.

As to `O=C(O)[C@H]1O[C@@H](Oc2cc3oc(-c4ccccc4)cc(=O)c3c(O)c2O)[C@H](O)[C@@H](O)[C@@H]1O` [BAICALIN], the IC50 in assay [1] amounted to 1400 µM; in assay [5], 1000 µM; in assay [3], 450 µM; in assay [4], 1600 µM. For the same compound, in assay [6], the inhibition entry was “inactive”.

In the case of `O=C(O)c1cc(=O)c2c(OCC(O)COc3cccc4oc(C(=O)O)cc(=O)c34)cccc2o1` [CROMOLYN SODIUM], the IC50 came to 1700 µM in assay [1]; 1700 µM in assay [5]; 1600 µM in assay [7]; 330 µM in assay [3]; 1600 µM in assay [4]. Moreover, the inhibition result in assay [6] is “inactive”.

What is called IC50 is the concentration at which inhibition is half-maximal. One may read the inhibition as the relative decrease from the control value, in per cent.
